According to PMC12163485 (Drug Metabolism and Disposition, 2025):
Several values for one entry are separate records, joined by “and”; a condition that tells them apart may be missing. Identical values can stand only once. Like-named read-outs stand apart in the source and are kept apart here.

Key:
human OCTN1 (hOCTN1) = molecular target: T1, human OCTN1 (hOCTN1) (Homo sapiens, UniProt Q9H015); assay: Uptake of the extended cocktail by HEK293 cells overexpressing hOCTN1; assay type: in vitro ADME; conditions: Fig. 6
T1 construct: expressed in transfected cells
T1 sequence (Q9H015 1-551): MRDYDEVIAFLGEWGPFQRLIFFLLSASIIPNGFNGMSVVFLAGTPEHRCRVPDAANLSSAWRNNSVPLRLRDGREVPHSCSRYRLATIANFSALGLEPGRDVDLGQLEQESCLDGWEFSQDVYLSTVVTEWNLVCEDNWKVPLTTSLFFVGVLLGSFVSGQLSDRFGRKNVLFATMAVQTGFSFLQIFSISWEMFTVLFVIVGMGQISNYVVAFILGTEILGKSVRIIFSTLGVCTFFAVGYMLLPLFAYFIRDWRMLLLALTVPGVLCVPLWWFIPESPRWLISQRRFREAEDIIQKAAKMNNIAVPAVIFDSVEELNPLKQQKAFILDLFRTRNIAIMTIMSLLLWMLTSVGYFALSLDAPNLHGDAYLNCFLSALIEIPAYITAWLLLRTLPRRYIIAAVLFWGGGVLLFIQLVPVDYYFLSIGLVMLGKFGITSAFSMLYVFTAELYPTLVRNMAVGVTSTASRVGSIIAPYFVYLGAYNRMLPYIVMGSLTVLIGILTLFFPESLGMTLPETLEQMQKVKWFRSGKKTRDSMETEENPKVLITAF

human OCTN2 (hOCTN2) = molecular target: T2, human OCTN2 (hOCTN2) (Homo sapiens, UniProt O76082); assay: Uptake of the extended cocktail by HEK293 cells overexpressing hOCTN2; assay type: in vitro ADME; conditions: Fig. 6
T2 construct: expressed in transfected cells
T2 sequence (O76082 1-557): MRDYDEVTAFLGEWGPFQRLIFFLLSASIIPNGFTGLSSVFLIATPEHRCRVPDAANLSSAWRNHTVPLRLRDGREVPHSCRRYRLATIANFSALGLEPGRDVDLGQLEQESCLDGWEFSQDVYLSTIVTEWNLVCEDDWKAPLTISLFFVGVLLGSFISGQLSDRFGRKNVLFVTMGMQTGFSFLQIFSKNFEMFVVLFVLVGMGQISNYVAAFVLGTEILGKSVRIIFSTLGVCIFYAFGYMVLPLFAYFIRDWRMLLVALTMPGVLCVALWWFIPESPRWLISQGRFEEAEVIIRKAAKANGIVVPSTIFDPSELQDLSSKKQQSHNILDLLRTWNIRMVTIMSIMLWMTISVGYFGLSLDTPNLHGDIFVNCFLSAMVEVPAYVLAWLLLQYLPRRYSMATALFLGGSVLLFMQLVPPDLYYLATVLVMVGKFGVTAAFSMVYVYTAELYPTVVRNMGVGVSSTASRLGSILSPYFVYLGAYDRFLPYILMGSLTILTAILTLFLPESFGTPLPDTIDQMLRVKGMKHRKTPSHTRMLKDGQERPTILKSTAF

[1] = cited from earlier work; for cmax = Imax: dose and route as in Supplemental Table 4, ref Hardman, 2018, fenoterol Tzvetkov et al; for cmax = Imax / fraction unbound: ipratropium Zhang et al, 2023; for fraction unbound: fraction unbound in plasma, ref Hardman, 2018, Lombardo et al (2018), fenoterol Tzvetkov et al; for tmax: p.o., ref Hardman, 2018
mouse OCT1 [2] = molecular target: T3, mouse OCT1 (Mus musculus, UniProt O08966); assay: Uptake of the cocktail by HEK293 cells overexpressing mouse Oct1; conditions: fold change to the negative control, n = 12
T3 sequence (O08966 1-556): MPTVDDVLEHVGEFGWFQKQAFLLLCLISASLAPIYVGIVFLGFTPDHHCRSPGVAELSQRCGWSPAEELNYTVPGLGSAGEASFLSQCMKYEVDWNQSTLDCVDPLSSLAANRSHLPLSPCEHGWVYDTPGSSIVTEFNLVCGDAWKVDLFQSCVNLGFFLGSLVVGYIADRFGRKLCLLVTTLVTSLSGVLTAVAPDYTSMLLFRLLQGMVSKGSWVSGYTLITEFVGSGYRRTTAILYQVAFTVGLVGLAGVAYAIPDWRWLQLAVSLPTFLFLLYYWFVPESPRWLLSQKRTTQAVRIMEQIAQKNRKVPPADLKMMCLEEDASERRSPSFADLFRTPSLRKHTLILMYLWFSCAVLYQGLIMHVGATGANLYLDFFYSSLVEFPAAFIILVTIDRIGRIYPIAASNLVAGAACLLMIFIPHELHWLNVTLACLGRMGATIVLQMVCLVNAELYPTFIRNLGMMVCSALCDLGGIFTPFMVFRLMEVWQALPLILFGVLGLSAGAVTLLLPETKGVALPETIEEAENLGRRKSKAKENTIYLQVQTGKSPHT
Experimental: (§1) Significance was calculated using Mann–Whitney U test. n = 5–8 independent experiments.

[3] = Pharmacokinetic parameters used for estimating the potential for DDIs; assay type: in vivo, human; conditions: for Imax, portal: Iin,max=Imax+Fa×ka×D/Qh, Qh 97 L/h, Fa 1, Imax for fenoterol and ipratropium; for ka: first-order absorption rate constant, calculated manually from available pharmacokinetic parameters
Experimental: (§2) Ka was calculated manually based on available pharmacokinetic parameters.

human OCT1 (hOCT1) [4] = molecular target: T4, human OCT1 (hOCT1) (Homo sapiens, UniProt O15245); assay: Inhibition of OCT1-mediated uptake of the cocktail substrates in HEK293 cells overexpressing human OCT1; conditions: for IC50: human OCT1, mean ± SD
T4 sequence (O15245 1-554): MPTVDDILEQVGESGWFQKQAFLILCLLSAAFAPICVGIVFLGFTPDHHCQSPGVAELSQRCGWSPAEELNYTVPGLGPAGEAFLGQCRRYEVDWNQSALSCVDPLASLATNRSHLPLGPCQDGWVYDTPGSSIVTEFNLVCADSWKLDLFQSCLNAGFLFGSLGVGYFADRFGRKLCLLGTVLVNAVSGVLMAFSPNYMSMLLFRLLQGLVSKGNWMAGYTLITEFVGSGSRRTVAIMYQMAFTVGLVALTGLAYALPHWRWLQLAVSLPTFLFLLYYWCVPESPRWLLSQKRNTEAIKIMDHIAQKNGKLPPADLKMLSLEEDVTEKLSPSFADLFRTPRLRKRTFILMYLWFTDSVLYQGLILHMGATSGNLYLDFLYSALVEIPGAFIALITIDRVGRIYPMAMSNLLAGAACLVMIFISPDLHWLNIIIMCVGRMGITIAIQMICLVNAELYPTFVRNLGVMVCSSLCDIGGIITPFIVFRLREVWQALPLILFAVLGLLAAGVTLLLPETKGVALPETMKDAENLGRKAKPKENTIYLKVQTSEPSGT

mOct1 = test system: mOct1; design: method as in ref column References of Table 2 (Morse et al, 2020; Jensen et al, 2020; Meyer et al, 2022); conditions: literature values; References of Table 2 (Morse et al, 2020; Jensen et al, 2020; Meyer et al, 2022); cited from earlier work
human OCT1 (hOCT1) [5] = molecular target: T4, human OCT1 (hOCT1)
human OCT1 (hOCT1) [6] = molecular target: T4, human OCT1 (hOCT1); design: expressed in transfected cells; empty vector control pcDNA5; method as in ref column References of Table 2 (Tzvetkov et al, 2018; Morse et al, 2020; Jensen et al, 2020; Meyer et al, 2019, 2022; Wittern et al, 2024 and own unpublished data; Elsby et al, 2017); conditions: literature values; References of Table 2 (Tzvetkov et al, 2018; Morse et al, 2020; Jensen et al, 2020; Meyer et al, 2019, 2022; Wittern et al, 2024 and own unpublished data; Elsby et al, 2017); cited from earlier work
OCT1 [7] = molecular target: T5, OCT1 (Homo sapiens, UniProt O15245); assay: DDI risk R calculated from IC50 at human OCT1; conditions: R=1+fup×Iin,max/IC50, cutoff R ≥ 1.1
T5 sequence (O15245 1-554): T4 sequence (O15245 1-554)

OCT1 [8] = molecular target: T5, OCT1; assay: Uptake of the cocktail by HEK293 cells overexpressing human OCT1
Experimental: as §1

human OCT2 (hOCT2) = molecular target: T6, human OCT2 (hOCT2) (Homo sapiens, UniProt O15244); assay: Uptake of the extended cocktail by HEK293 cells overexpressing hOCT2; assay type: in vitro ADME; conditions: Fig. 6
T6 construct: expressed in transfected cells
T6 sequence (O15244 1-555): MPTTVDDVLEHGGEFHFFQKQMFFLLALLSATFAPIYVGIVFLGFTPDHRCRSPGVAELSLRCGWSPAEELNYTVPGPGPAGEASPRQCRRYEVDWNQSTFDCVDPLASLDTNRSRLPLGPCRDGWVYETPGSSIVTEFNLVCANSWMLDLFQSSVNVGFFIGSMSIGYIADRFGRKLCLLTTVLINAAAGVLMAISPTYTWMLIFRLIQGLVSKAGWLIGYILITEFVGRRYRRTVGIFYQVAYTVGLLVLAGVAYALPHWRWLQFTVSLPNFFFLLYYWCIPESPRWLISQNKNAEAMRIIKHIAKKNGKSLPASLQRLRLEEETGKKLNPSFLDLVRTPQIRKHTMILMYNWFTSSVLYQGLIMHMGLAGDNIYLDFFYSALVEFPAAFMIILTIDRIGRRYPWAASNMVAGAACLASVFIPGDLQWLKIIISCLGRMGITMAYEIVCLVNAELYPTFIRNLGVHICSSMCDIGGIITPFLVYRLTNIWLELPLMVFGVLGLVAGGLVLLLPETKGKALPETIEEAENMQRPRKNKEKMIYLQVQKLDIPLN

mouse OCT1 [9] = molecular target: T3, mouse OCT1
Experimental: Therefore, the calculation method used for hepatic uptake transporters such as organic anion transporting polypeptide (OATP) 1B1 and OATP1B3 was also applied for OCT1.
as §2

OCT1 [10] = conditions: read-out: inhibitory potency for metformin uptake via OCT1; substrate metformin; ref Ahlin et al, 2011; Panfen et al, 2019; cited from earlier work

C[N+](C)(C)C[C@H](O)CC(=O)[O-] [L-carnitine]
transport by OCTN1 (human OCTN1 (hOCTN1)): transported both L-carnitine and L-ergothioneine | transport by OCTN2 (human OCTN2 (hOCTN2)): transported only L-carnitine

O=C(O[C@H]1C[C@H]2CC[C@@H](C1)[N+]21CCCC1)C(O)(c1ccccc1)c1ccccc1 [Trospium, trospium]
cmax = Imax [1]: 5.20 ng/mL | fraction unbound [1]: 0.33 | tmax [1]: 6.7 h | t1/2 ([1]; ref Hardman, 2018, fenoterol Tzvetkov et al): 9.9 h | mouse Oct1 uptake [fold change to pcDNA5] (mouse OCT1 [2]): 26.9 fold change to pcDNA5 | Imax, portal [3]: 89.63 ng/mL | ka [3]: 0.273 h⁻¹ | k el ([3]; human, in vivo, po, read-out: ke (converted)): 1.94e-05 s⁻¹ | I max, portal, u ([3]; unbound maximum inhibitor concentration at the inlet of the liver): 0.08 µM | IC50 (human OCT1 (hOCT1) [4]; IC50 for inhibition of fenoterol uptake, substrate (victim) fenoterol 0.5 μM in cocktail): 15.8 ± 1.87 µM | IC50 (human OCT1 (hOCT1) [4]; IC50 for inhibition of ipratropium uptake, substrate (victim) ipratropium 0.5 μM in cocktail): 9.37 ± 0.83 µM | IC50 (human OCT1 (hOCT1) [4]; IC50 for inhibition of methylnaltrexone uptake, substrate (victim) methylnaltrexone 1 μM in cocktail): 14.7 ± 1.95 µM | IC50 (human OCT1 (hOCT1) [4]; IC50 for inhibition of sumatriptan uptake, substrate (victim) sumatriptan 0.5 μM in cocktail): 16.8 ± 2.03 µM | IC50 (human OCT1 (hOCT1) [4]; IC50 for inhibition of zolmitriptan uptake, substrate (victim) zolmitriptan 0.5 μM in cocktail): 10 ± 1.59 µM | Km (mOct1): 1.81 µM | IC50 (human OCT1 (hOCT1) [5]): 12.4 µM and 8.14 µM | Km (human OCT1 (hOCT1) [6]): 16.1 µM | DDI risk R, victim drug fenoterol (OCT1 [7]): 1.00 | DDI risk R, victim drug ipratropium (OCT1 [7]): 1.01 | DDI risk R, victim drug metformin (OCT1 [7]): 1.01 | DDI risk R, victim drug methylnaltrexone (OCT1 [7]): 1.01 | DDI risk R, victim drug salbutamol (OCT1 [7]): 1.01 | DDI risk R, victim drug sumatriptan (OCT1 [7]): 1.00 | DDI risk R, victim drug zolmitriptan (OCT1 [7]): 1.01 | human OCT1 uptake [fold change to pcDNA5] (OCT1 [8]; cocktail, fold change to the negative control, n = 12): 28.6 fold change to pcDNA5 | transport by OCT1 (OCT1 [8]; extended cocktail, Fig. 6): transported only by OCT1 and OCT2 | transport by OCT2 (human OCT2 (hOCT2)): transported only by OCT1 and OCT2

C=C[C@H]1C[N@@]2CC[C@H]1C[C@@H]2[C@@H](O)c1ccnc2ccc(OC)cc12 [Quinidine, quinidine]
cmax = Imax [1]: 1300 ng/mL | fraction unbound [1]: 0.13 | tmax [1]: 2.00 h | Imax, portal [3]: 6908 ng/mL | ka [3]: 1.36 h⁻¹ | zolmitriptan uptake inhibited more potently than sumatriptan uptake (human OCT1 (hOCT1) [4]): 2.9 fold | DDI risk R, victim drug trospium (mouse OCT1 [9]): 1.23 | IC50 (OCT1 [10]): 7.7 µM
